Experimental findings from patent publication US20140163456A1, “METHOD OF PRODUCING SUBSTANCES WITH SUPERSATURATED GAS, TRANSDERMAL DELIVERY DEVICE THEREOF, AND USES THEREOF” (INVISIDERM, LLC, priority 2011, published 2014) are described below.

The structures appear in SMILES notation.

Assay [1] relates to individuals. Kind of assay: Measurement of brachial diastolic and systolic blood pressure on right upper arm. It counts as in vivo, human. The procedure: (§1) The treatment was administered by having an individual insert the left thumb into the open-ended delivery outlet of a device disclosed herein creating a seal. The digit will be “bathed” for five minutes with a vapor including supersaturated dissolved molecular carbon dioxide from a canister providing pure, medical-grade carbon dioxide. Nine individuals were examined.
To conduct this study, individuals from the study described in Example 1 had there blood pressure taken. A measurement of both brachial diastolic blood pressure and systolic blood pressure was performed on the individual's right upper arm at six time points 1) 5 minutes before treatment (pre-treatment); 2) 5 minutes post-treatment; 3) 30 minutes post-treatment; 4) 60 minutes post-treatment; 5) 120 minutes post-treatment; and 6) 240 minutes post-treatment.

Assay [2] deals with individuals. Briefly: Measurement of blood flow: Skin Perfusion Pressure (SensiLase System) on right toe, capillary blood flow change. It counts as in vivo, human. How it is done:
as §1
Tissue perfusion in distal arteries was accessed using a SensiLase System (a FDA-cleared device) and measuring Skin Perfusion Pressure (SPP) and Pulse Volume Recording (PVR). SPP is a pressure measurement in mmHg that assess local blood perfusion in capillaries using a laser Doppler to measure reactive hyperemia, which reflects microcirculation for distal arterial blood flow. PVR is a measurement of plethysmography to assess changes in arterial blood volume. A change in capillary blood flow (CBF) is calculated by determining the change in SPP values over time. For this study, the CBF values of all post-treatment measurements were calculated by dividing the post-treatment SPP value by the pre-treatment SPP value. A measurement of SPP was performed on the individual's right toe at six time points 1) 5 minutes before treatment (pre-treatment); 2) 5 minutes post-treatment; 3) 30 minutes post-treatment; 4) 60 minutes post-treatment; 5) 120 minutes post-treatment; and 6) 240 minutes post-treatment.

Setting [3] is: nine individuals, 5 to 240 min post-treatment.
[4] abbreviates: over the course of the entire 240 minute study.

Regarding `O=C=O` [molecular carbon dioxide, carbon dioxide], the blood pressure entry with individuals [1] (setting [3]) is “decreased blood pressure in all individuals examined at some point during the time period measured”. Further, in the assay with individuals [1] (setting [4]), the “diastolic and systolic blood pressure” value was “Seven of the nine individuals studied showed decreased diastolic and systolic blood pressure”. Besides, in the assay with individuals [2] (setting [3]), the blood flow result is listed as “increases blood flow in all individuals examined at some point during the time period measured”. Also, the “sustained increases in capillary blood flow” value in the assay with individuals [2] (setting [4]) is “six of the nine patients showed sustained increases in capillary blood flow”.
